Where two headings read alike, the source gives them in different places.
Key:
rats = experiment: EEG/EMG sleep-wake analysis, single administration compared to zolpidem; type: in vivo, rat
[1] = Plasma concentration (pharmacokinetics) after single oral dose in humans; type: in vivo, human; conditions: for half-life / Tmax / AUC(0-t) / Cmax / AUC(0-inf): male, human, plasma; for half-life / Tmax: po; for AUC(0-inf): read-out: AUCinf Mean
Procedure: The plasma concentration of Compound (1D) was evaluated in humans for up to 36 hours after administration of a single oral dose of 3, 10, or 30 mg of Compound (1D) in the form of a methyl cellulose suspension. Four healthy male subjects were administered each dose.
FIG. 19A provides a plot of the human plasma concentration of Compound (1D) on a linear scale versus linear time in hours at each dose: 3, 10, and 30 mg. FIG. 19B provides the same results in a plot of human plasma concentration of Compound (1D) on a logarithmic scale versus linear time at each dose. The target plasma exposure indicated in FIG. 19A relates to the effective dose in 80% of subjects from rat modeling results.

in vivo = conditions: male, Crl:CD(SD), rat, po, no-observed-adverse-effect-level (NOAEL)
human liver microsomes = experiment: In vitro metabolic stability, human liver microsomes; type: in vitro ADME; conditions: 2 μM, % remaining after 30 minutes at 37° C.
Procedure: The comparative in vitro metabolic stabilities of Compounds (1F), […], and W-212393 were determined upon exposure to human liver microsomes or rat liver microsomes according to a procedure disclosed in, e.g., Example 14 of U.S. Pat. No. 9,290,488, which is hereby incorporated by reference in its entirety. Liver microsomes from Crj;CD rats or humans were incubated with 2 μM of each tested compound; thereafter, the supernatant was analyzed by HPLC-MS for the concentration of the tested compound present. Human liver microsomes, pooled, 20 mg/mL, were obtained from […] #H0610). […] Alternatively and if desired, rat liver microsomes can be obtained commercially from, e.g., XenoTech (Sprague-Dawley rat liver microsomes, pooled, 20 mg/mL, cat #R1000). β-NADPH (β-nicotinamide adenine dinucleotide 2'-phosphate reduced tetrasodium salt hydrate) was obtained from Oriental Yeast Co., Ltd. (Tokyo, Japan). Each tested compound, present at an initial concentration of 2 μM, was incubated at 37° C. in the presence of 0.5 mg/mL of either human microsomes or rat microsomes in suspension in 50 mM Tris-HCl buffer (7.4 pH), 150 mM KCl, 10 mM MgCl2, and 1 mM β-NADPH. Incubation was initiated upon the addition of a 100-fold concentrated solution of the tested compound to one of the microsome preparations. Incubation was terminated by addition of a two-fold volume of a 1/1 mixture of acetonitrile/methanol after either 0 minutes or 30 minutes of incubation at 37° C. Thereafter, proteins and other macromolecules from the microsome preparation were removed by centrifugation. All incubations were conducted in duplicate. […] The HPLC system consisted of a Waters 2795 separations module (Waters Corp., Milford, Mass.) equipped with an inline degasser, temperature controlled auto-sampler, and column oven. The analytical column was a Waters […], 2.1 mm×20 mm column. The mass analyzer was a Waters ZQ, single quadrupole mass spectrometer equipped with an electrospray ionization source operating in the positive ionization mode and utilizing a stainless steel spray capillary. […]

[2] = In vivo bioavailability after oral dosing; conditions: male, Sprague-Dawley [Crl:CD(SD)], rat, plasma; 1 mg/kg oral, non-fasted; mean of multiple determinations

O=C(O)c1nc2ccccc2n([C@H]2C[C@H]3CCC[C@@H](C2)N3C2CC3CCCC(C3)C2)c1=O (stereo partly drawn) [Compound (1D)]
effect on percentage of time spent in REM sleep (rats; 10 mg/kg oral (FIG. 13B)): no significant effects | percentage of time spent in wakefulness versus vehicle (rats; 10 mg/kg oral, 1 hour blocks at 2, 5, and 8 hours after dosing (FIG. 13A)): lower | percentage amounts of wakefulness, REM sleep, and NREM sleep (rats; 10 mg/kg oral, 3 hour blocks (FIGS. 14A-14C)): no significant changes | percentage of time spent in NREM sleep versus vehicle (rats; 10 mg/kg oral, at 2, 5, and 8 hours after dosing (FIG. 13C)): higher | percentage of time spent in wakefulness versus vehicle (rats; 10 mg/kg oral, at 6 and 15 hours after dosing (FIG. 13A)): significantly increased | percentage of time spent in NREM sleep versus vehicle (rats; 10 mg/kg oral, at 6 and 15 hours after dosing (FIG. 13C)): significantly decreased | effect on percentage of time spent in REM sleep (rats; 100 mg/kg oral (FIG. 15B, 16B)): no significant effects | percentage amount of NREM sleep versus vehicle (rats; 100 mg/kg oral, 3 hour blocks 0-3, 3-6, 6-9, and 15-18 hours (FIG. 16C)): significant decreases | percentage amount of wakefulness versus vehicle (rats; 100 mg/kg oral, 3 hour blocks 0-3, 3-6, and 15-18 hours (FIG. 16A)): significant increases | percentage of time spent in NREM sleep versus vehicle (rats; 100 mg/kg oral, at 3, 4, 5, 7, 17 and 18 hours after dosing (FIG. 15C)): significantly increased | percentage of time spent in wakefulness versus vehicle (rats; 100 mg/kg oral, at 3, 5 and 17 hours after dosing (FIG. 15A)): significantly decreased | overall sleep effect (rats; single 10 mg/kg oral dose): minor sleep-enhancing effects | overall sleep effect (rats; single 100 mg/kg oral dose): significant sleep-enhancing effects | AUCinf Maximum ([1]; 3 mg single oral dose): 176 ng·h/mL | AUCinf Minimum ([1]; 3 mg single oral dose): 144 ng·h/mL | AUCt Maximum ([1]; 3 mg single oral dose): 168 ng·h/mL | AUCt Minimum ([1]; 3 mg single oral dose): 135 ng·h/mL | Cmax Maximum ([1]; 3 mg single oral dose): 34 ng/mL | Cmax Minimum ([1]; 3 mg single oral dose): 23 ng/mL | t1/2 Minimum ([1]; 3 mg single oral dose): 2.1 h | tmax Maximum ([1]; 3 mg single oral dose): 2.0 h | AUCinf Maximum ([1]; 10 mg single oral dose): 557 ng·h/mL | AUCinf Minimum ([1]; 10 mg single oral dose): 320 ng·h/mL | AUCt Maximum ([1]; 10 mg single oral dose): 550 ng·h/mL | AUCt Minimum ([1]; 10 mg single oral dose): 300 ng·h/mL | Cmax Maximum ([1]; 10 mg single oral dose): 98 ng/mL | Cmax Minimum ([1]; 10 mg single oral dose): 56 ng/mL | t1/2 Maximum ([1]; 10 mg single oral dose): 3.0 h | t1/2 Minimum ([1]; 10 mg single oral dose): 2.4 h | tmax Maximum ([1]; 10 mg single oral dose): 2.0 h | tmax Minimum ([1]; 10 mg single oral dose): 1.0 h | AUCinf Maximum ([1]; 30 mg single oral dose): 714 ng·h/mL | AUCinf Minimum ([1]; 30 mg single oral dose): 398 ng·h/mL | AUCt Maximum ([1]; 30 mg single oral dose): 708 ng·h/mL | AUCt Minimum ([1]; 30 mg single oral dose): 388 ng·h/mL | Cmax Maximum ([1]; 30 mg single oral dose): 106 ng/mL | Cmax Minimum ([1]; 30 mg single oral dose): 69 ng/mL | t1/2 Maximum ([1]; 30 mg single oral dose): 3.2 h | tmax Maximum ([1]; 30 mg single oral dose): 3.0 h | tmax Minimum ([1]; 30 mg single oral dose): 1.0 h | gastrointestinal absorption ([1]; across the three doses): rapid gastrointestinal absorption | half-life ([1]; 3 mg, 3 mg single oral dose, read-out: t1/2 Mean (converted)): 2.3 h | Tmax ([1]; 3 mg, 3 mg single oral dose, read-out: tmax Mean): 1.6 h | Tmax ([1]; 3 mg, 3 mg single oral dose, read-out: tmax Median): 1.5 h | half-life ([1]; 10 mg, 10 mg single oral dose, read-out: t1/2 Mean (converted)): 2.6 h | Tmax ([1]; 10 mg, 10 mg single oral dose, read-out: tmax Mean): 1.5 h | half-life ([1]; 30 mg, 30 mg single oral dose, read-out: t1/2 Mean (converted)): 2.8 h | Tmax ([1]; 30 mg, 30 mg single oral dose, read-out: tmax Mean): 1.8 h | Tmax ([1]; 30 mg, 30 mg single oral dose, read-out: tmax Median): 1.5 h | half-life ([1]; 30 mg, 3, 10 and 30 mg single oral doses, read-out: t1/2, minimum to maximum across the three doses): 2.1 to 3.2 h | Tmax ([1]; 30 mg, 3, 10 and 30 mg single oral doses, read-out: tmax, minimum to maximum across the three doses): 1 to 3 h | AUC(0-t) ([1]; 3 mg single oral dose): 154 ng·h/mL | Cmax ([1]; 3 mg single oral dose): 30 ng/mL | AUC(0-inf) ([1]; 3 mg single oral dose): 161 ng·h/mL | AUC(0-t) ([1]; 10 mg single oral dose): 438 ng·h/mL | Cmax ([1]; 10 mg single oral dose): 77 ng/mL | AUC(0-inf) ([1]; 10 mg single oral dose): 447 ng·h/mL | AUC(0-t) ([1]; 30 mg single oral dose): 505 ng·h/mL | Cmax ([1]; 30 mg single oral dose): 83 ng/mL | AUC(0-inf) ([1]; 30 mg single oral dose): 512 ng·h/mL | NOAEL (in vivo): 600 mg/kg

CNC(=O)Cn1c(=O)n(C2CCN([C@@H]3Cc4cccc5cccc3c45)CC2)c2ccccc21 [Compound W-212393]
Human Metabolic Stability (%) (human liver microsomes): 27.3% | bioavailability [2]: 2.1%

— US10974081B2, “Treatment and prevention of sleep disorders” (Purdue Pharma L.P., priority 2016, dated 2021)
